From article PMC11249626, “Fluorophore-Labeled Pyrrolones Targeting the Intracellular Allosteric Binding Site of the Chemokine Receptor CCR1” (ACS Pharmacology & Translational Science, 2024) come the findings set out here.

Experiment [1] has as its target T1, CCR1 (Homo sapiens, UniProt P32246).
T1 sequence (P32246 1-355): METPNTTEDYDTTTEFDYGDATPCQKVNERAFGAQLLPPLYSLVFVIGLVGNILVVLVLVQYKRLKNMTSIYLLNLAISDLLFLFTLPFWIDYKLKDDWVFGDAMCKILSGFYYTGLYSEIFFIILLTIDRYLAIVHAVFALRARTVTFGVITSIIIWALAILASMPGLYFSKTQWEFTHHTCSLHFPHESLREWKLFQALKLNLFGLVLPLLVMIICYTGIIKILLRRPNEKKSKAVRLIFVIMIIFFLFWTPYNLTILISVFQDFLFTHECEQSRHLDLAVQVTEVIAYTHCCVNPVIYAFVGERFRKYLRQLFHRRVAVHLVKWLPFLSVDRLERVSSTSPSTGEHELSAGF
The experiment is described as follows: Membrane-based NanoBRET competition assay with 12 (2000 nM) and CCR1_Nluc membranes. The class given is binding. More on the design: Promega pNLF1-C (Nluc) #CCR010TN00; host or cells: HEK293T, transient (PEI). The note with it: for Ki: read-out: Ki, CCR1 (converted). For orientation: In BRET a luciferase serves as donor, and the signal depends on an acceptor being close.

Experiment [2] has as its target T2, human CCR2b (Homo sapiens, UniProt P41597).
T2 sequence (P41597 1-360 isoform P41597-2): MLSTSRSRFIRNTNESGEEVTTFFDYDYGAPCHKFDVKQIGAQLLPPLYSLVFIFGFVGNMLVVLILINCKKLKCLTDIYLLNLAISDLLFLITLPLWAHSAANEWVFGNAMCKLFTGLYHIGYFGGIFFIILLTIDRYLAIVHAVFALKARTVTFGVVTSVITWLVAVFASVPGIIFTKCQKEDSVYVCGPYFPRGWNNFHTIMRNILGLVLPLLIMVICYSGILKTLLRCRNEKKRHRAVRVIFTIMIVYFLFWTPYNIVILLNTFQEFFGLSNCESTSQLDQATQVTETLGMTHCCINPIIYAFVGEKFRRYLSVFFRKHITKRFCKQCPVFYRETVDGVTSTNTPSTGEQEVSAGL
Put plainly: Membrane-based radioligand binding assay with [3H]-CCR2-RA-[R], U2OS membranes. The note with it: [3H]CCR2-RA-[R] 6 nM, 25 °C. The protocol: (§1) Membrane-based radioligand binding assays: Assays were performed according to the published protocol.13 Radioligand binding assays were performed in a 100 µ L reaction volume containing varying concentrations (final concentrations: 0.001 – 10 µM) of compounds 23 and 5, 6 nM [3H]-CCR2-RA-[R] (specific activity 60.6 Ci mmol-1, custom labeled by Vitrax in Placentia, CA, USA), and 15 µg membrane protein, all diluted in assay buffer (50mM Tris-HCl, 5 mM MgCl2, 0.1% CHAPS, at pH 7.4). Membranes were obtained from Tango™ CCR1-bla or Tango™ CCR2-bla osteosarcoma (U2OS) cells stably expressing the human CCR1 ([…]) or human CCR2b (U2OS-CCR2) cells (Invitrogen, Carlsbad, CA, USA). Total binding was determined in the absence of competing ligand, while non -specific binding was determined in the presence of 10 µM CCR2-RA-[R]. After membrane addition, reaction mixtures were incubated for 2 h at 25 °C while shaking. After 2 h, reactions were terminated by harvesting through a 96 -well GF/C filter plate using a PerkinElmer Filtermate harvester (PerkinElmer, Groningen, NL) and ice -cold wash buffer (50mM Tris-HCl, 5 mM MgCl2, 0.1% CHAPS, at pH 7.4). Afterwards, filter plate was dried, and radioactivity was measured in a P-E-2450 Microbeta2 scintillation plate counter (PerkinElmer, Groningen, NL) after addition of 25 µL of Microscint scintillation cocktail (PerkinElmer, Groningen, NL). […]
(§2) Technologies) for 20 min. […]
(§3) Finally, the top 5% of the identified hits were subsequently docked to a homology model of CCR1 (vide infra). After visual examination of the obtained binding modes 24 hit compounds were identified for further investigation .
(§4) Molecular docking: For the docking studies in the course of our virtual screening campaign, the CCR1 protein was […]
(§5) 27, 28 CCR1 structure was optimized using the Quickprep and structure preparation wizard in MOE 24 using CHARMM27 forcefield. The protein was saved in mol2 format and loaded in GOLD.25, 26 The amino acids defining the IABS were listed in a text file to define the docking cavity. 50 GA runs were performed for docking CCR2-RA-[R] (4-[R]) and SN_12 (43), with the generated solutions clustered based on their RMSD with the threshold set to 0.75 Å using the complete linkage method. Docking runs were performed using ChemScore. Flexibility of amino acids Lys63ICL1, Arg1313.50, Leu2406.36 and Arg3078.49 was taken in consideration in the docking runs, with conformational sampling of their side chains being done by the rotamer libraries implemented in GOLD.25, 26 For the docking studies with our ligand-linker conjugates (Figure S1), molecular ligand structures were geometry optimized as neutral molecules by means of Avogadro (Version 1.2.0)29 using the Universal Force Field (UFF) and the Steepest Decent Algorithm until convergence (ΔE = 0).
(§6) CCR113 was used for docking. The compounds were docked by means of AutoDock Vina 1.1.2.30, 31 An exhaustiveness value of 8 and a search space of 22 x 22 x 22 Å³ was applied around the unliganded intracellular allosteric binding site of CCR1. Twenty docking poses were generated for each ligand and inspected manually and according to the docking score.

The target of experiment [3] is T1, CCR1. The description is as above. The settings on record: for Ki: [3H]CCR2-RA-[R] 6 nM, 25 °C. As for the experimental part: as §1, §2, §3, §4, §5, §6
Setting [4] is: 12 (2000 nM), CCR1_Nluc membranes.
[5] abbreviates: read-out: Ki, CCR2 (radioligand).
[6] abbreviates: read-out: Ki, CCR1 (radioligand).

Read-outs that look alike come from different tables or passages of the source.

Regarding `O=C(C1=C(O)C(=O)N(CCc2ccc(O)cc2)C1c1ccc(F)cc1)c1ccccc1` (racemic) [compound 23], the Ki in experiment [1] (setting [4]) was 100 nM; in experiment [2] (setting [5]), 3820 nM; in experiment [3] (setting [6]), 117 nM. Moreover, in experiment [1] (NanoBRET competition binding assays), the “CCR1 over CCR2 binding selectivity” value was “at least 172 fold”. Also, in experiment [3], the “CCR1 over CCR2 binding selectivity (radioligand)” value is reported as 33 fold.

As to `CC(=O)C1=C(O)C(=O)N(c2ccc(Br)cc2F)C1C1CCCCC1` (centres unmarked) [compound 5, reference compound], the “pKi ± SEM, CCR1” value in experiment [1] (setting [4]) was found to be 7.96 ± 0.10. For the same compound, the Ki in experiment [1] (setting [4]) was 11.8 nM; in experiment [2] (setting [5]) it was 9 nM; in experiment [2] (read-out: pKi, CCR2 (radioligand) (converted)) it was 7.94 nM; in experiment [3] (setting [6]), 18 nM; in experiment [3] (read-out: pKi, CCR1 (radioligand) (converted)), 15.8 nM.
